Results: patent publication US20240325386A1, “THERAPEUTIC AGENT FOR COVID-19” (FUJIFILM Toyama Chemical Co., Ltd., priority 2021, published 2024)
Like-named read-outs stand apart in the source and are kept apart here.

What was measured:
SARS-CoV-2 [1] = details: Japanese phase III clinical study, as reported in Non-patent Literature 4 (news release); cited from earlier work
SARS-CoV-2 [2] = assay type: in vivo
[3] = mITT, N = 107, improvement in body temperature, SpO2, chest imaging and SARS-CoV-2 negative conversion

NC(=O)c1nc(F)cnc1O [Compound A, 6-fluoro-3-hydroxy-2-pyrazinecarboxamide]
time to improvement of body temperature, SpO2, chest image findings and SARS-CoV-2 negative conversion (primary endpoint) shorter than in the control group (SARS-CoV-2 [1]): approximately 3 days | median time to improvement shorter than in the control group (SARS-CoV-2 [2]; mITT, Compound A group 107 patients vs control group 49 patients): approximately 3 days | Patients with improvement (SARS-CoV-2 [2]; mITT, Compound A group N = 107, 1,800 mg BID Day 1 + 800 mg BID up to 13 days, oral, plus standard of care): 81 | Median time to improvement in 25% of patients (SARS-CoV-2 [2]; [3]): 7.8 days | Median time to improvement in 50% of patients (SARS-CoV-2 [2]; [3]): 11.9 days | Median time to improvement in 75% of patients (SARS-CoV-2 [2]; [3]): 15.6 days | median time to improvement shorter than in the control group (SARS-CoV-2 [2]; subgroup of patients testing negative for both IgG antibody and IgA antibody): approximately 5 days
